Several values for one entry are separate records, joined by “and”; a condition that tells them apart may be missing. Equal values may be shown once.
Test system: BDF1 mice, Adenocarcinoma 755 s.c., tumor weight T/C
Test: NCI In Vivo Anticancer Drug Screen. Data for tumor model Adenocarcinoma 755 (subcutaneous) in B6D2F1 (BDF1) mice
Settings: endpoint: mean tumor weight, higher = larger tumour
Summary of the method: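 Tumor-bearing mice receive test compound while controls get vehicle alone. Antitumor effect is scored from survival or tumor dimensions as a T/C quotient.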

[1] = dose: 9.3 mg/kg/injection, schedule: Q01DX011 (ip), vehicle: methylcellulose (MC)
[2] = dose: 18.7 mg/kg/injection, schedule: Q01DX011 (ip), vehicle: methylcellulose (MC)
[3] = dose: 37.5 mg/kg/injection, schedule: Q01DX011 (ip), vehicle: methylcellulose (MC)
[4] = dose: 75.0 mg/kg/injection, schedule: Q01DX011 (ip), vehicle: methylcellulose (MC)
[5] = dose: 30.0 mg/kg/injection, schedule: Q01DX011 (ip), vehicle: carboxymethylcellulose (CMC)
[6] = dose: 100.0 mg/kg/injection, schedule: Q01DX011 (ip), vehicle: carboxymethylcellulose (CMC)
[7] = dose: 6.0 mg/kg/injection, schedule: Q01DX011 (ip), vehicle: carboxymethylcellulose (CMC)
[8] = dose: 12.5 mg/kg/injection, schedule: Q01DX011 (ip), vehicle: carboxymethylcellulose (CMC)
[9] = dose: 150.0 mg/kg/injection, schedule: Q01DX011 (ip), vehicle: methylcellulose (MC)

For `C/C(=N\NC(=O)c1ccncc1)c1ccc(Br)cc1`, the T/C (dose: 30.0 mg/kg/injection, schedule: Q01DX011 (ip), vehicle: methylcellulose (MC)) was 44 % of control and 49 % of control, the T/C (dose: 120.0 mg/kg/injection, schedule: Q01DX011 (ip), vehicle: methylcellulose (MC)) was 48 % of control and 50 % of control and the T/C (dose: 240.0 mg/kg/injection, schedule: Q01DX011 (ip), vehicle: methylcellulose (MC)) was 32 % of control and 52 % of control. For the same compound, the T/C (dose: 500.0 mg/kg/injection, schedule: Q01DX011 (ip), vehicle: methylcellulose (MC)) was 54 % of control.
With `CCSc1nc(N)nc2c1ncn2C1OC(CO)C(O)C1O` (configuration not stated) the T/C [1] was 55 % of control, the T/C [2] was 39 % of control and the T/C [3] was 3 % of control. The T/C [4] was 4 % of control.
With `COc1cc2c(cc1I)-c1c(cc(OC)c(OC)c1OC)CC[C@@H]2NC(C)=O` the T/C (dose: 27.5 mg/kg/injection, schedule: Q01DX011 (ip), vehicle: carboxymethylcellulose (CMC)) was 98 % of control, the T/C (dose: 27.5 mg/kg/injection, schedule: Q01DX011 (ip), vehicle: saline) was 106 % of control and the T/C (dose: 55.0 mg/kg/injection, schedule: Q01DX011 (ip), vehicle: carboxymethylcellulose (CMC)) was 81 % of control. For the same compound, the T/C (dose: 55.0 mg/kg/injection, schedule: Q01DX011 (ip), vehicle: saline) was 86 % of control, the T/C (dose: 110.0 mg/kg/injection, schedule: Q01DX011 (ip), vehicle: carboxymethylcellulose (CMC)) was 40 % of control and the T/C (dose: 110.0 mg/kg/injection, schedule: Q01DX011 (ip), vehicle: saline) was 58 % of control. The T/C (dose: 220.0 mg/kg/injection, schedule: Q01DX011 (ip), vehicle: saline) was 16 % of control.
`Cn1c(N)nc2n[nH]nc2c1=O` was tested, and the T/C [5] was 105 % of control, the T/C (dose: 60.0 mg/kg/injection, schedule: Q01DX011 (ip), vehicle: carboxymethylcellulose (CMC)) was 119 % of control and the T/C [6] was 98 % of control. The T/C (dose: 120.0 mg/kg/injection, schedule: Q01DX011 (ip), vehicle: carboxymethylcellulose (CMC)) was 46 % of control and the T/C (dose: 240.0 mg/kg/injection, schedule: Q01DX011 (ip), vehicle: carboxymethylcellulose (CMC)) was 97 % of control.
`Cn1cnc2c(F)ncnc21` was tested, and the T/C (dose: 8.5 mg/kg/injection, schedule: Q01DX011 (ip), vehicle: carboxymethylcellulose (CMC)) was 106 % of control, the T/C (dose: 17.0 mg/kg/injection, schedule: Q01DX011 (ip), vehicle: carboxymethylcellulose (CMC)) was 96 % of control and the T/C (dose: 34.0 mg/kg/injection, schedule: Q01DX011 (ip), vehicle: carboxymethylcellulose (CMC)) was 85 % of control. For the same compound, the T/C (dose: 68.0 mg/kg/injection, schedule: Q01DX011 (ip), vehicle: carboxymethylcellulose (CMC)) was 84 % of control.
For `Cc1ccc(N2CCN(CCCN3CCN(c4ccccc4Cl)CC3)CC2)cc1`, the T/C [7] was 84 % of control, the T/C (dose: 11.0 mg/kg/injection, schedule: Q01DX011 (ip), vehicle: methylcellulose (MC)) was 29 % of control and the T/C (dose: 12.0 mg/kg/injection, schedule: Q01DX011 (ip), vehicle: carboxymethylcellulose (CMC)) was 64 % of control. The T/C (dose: 22.0 mg/kg/injection, schedule: Q01DX011 (ip), vehicle: methylcellulose (MC)) was 34 % of control, the T/C (dose: 22.5 mg/kg/injection, schedule: Q01DX011 (ip), vehicle: carboxymethylcellulose (CMC)) was 50 % of control and 55 % of control and the T/C (dose: 22.5 mg/kg/injection, schedule: Q01DX011 (ip), vehicle: other) was 93 % of control. The T/C (dose: 24.0 mg/kg/injection, schedule: Q01DX011 (ip), vehicle: carboxymethylcellulose (CMC)) was 65 % of control, the T/C (dose: 45.0 mg/kg/injection, schedule: Q01DX011 (ip), vehicle: carboxymethylcellulose (CMC)) was 50 % of control and 59 % of control and the T/C (dose: 45.0 mg/kg/injection, schedule: Q01DX011 (ip), vehicle: methylcellulose (MC)) was 12 % of control. The T/C (dose: 45.0 mg/kg/injection, schedule: Q01DX011 (ip), vehicle: other) was 69 % of control, the T/C (dose: 48.0 mg/kg/injection, schedule: Q01DX011 (ip), vehicle: carboxymethylcellulose (CMC)) was 63 % of control and the T/C (dose: 90.0 mg/kg/injection, schedule: Q01DX011 (ip), vehicle: carboxymethylcellulose (CMC)) was 43 % of control and 62 % of control. The T/C (dose: 96.0 mg/kg/injection, schedule: Q01DX011 (ip), vehicle: carboxymethylcellulose (CMC)) was 43 % of control.
With `CSc1ncnc2c1ncn2CCCl` the T/C (dose: 1.5 mg/kg/injection, schedule: Q01DX011 (ip), vehicle: carboxymethylcellulose (CMC)) was 92 % of control, the T/C (dose: 3.0 mg/kg/injection, schedule: Q01DX011 (ip), vehicle: carboxymethylcellulose (CMC)) was 80 % of control and the T/C [7] was 31 % of control. For the same compound, the T/C (dose: 6.2 mg/kg/injection, schedule: Q01DX011 (ip), vehicle: carboxymethylcellulose (CMC)) was 34 % of control and the T/C [8] was 4 % of control.
With `Cc1nnc2ncnc(N)c2n1` the T/C [5] was 46 % of control.
`CC(C)Cn1cnc2c(SCc3ccccc3)nc(N)nc21` was tested, and the T/C [3] was 62 % of control, the T/C [4] was 27 % of control and the T/C [9] was 20 % of control. For the same compound, the T/C (dose: 300.0 mg/kg/injection, schedule: Q01DX011 (ip), vehicle: methylcellulose (MC)) was 4 % of control.
For `O=C1C(NC(=O)C2CCCCC2)=C(N2CC2)C(=O)C(NC(=O)C2CCCCC2)=C1N1CC1`, the T/C (dose: 43.75 mg/kg/injection, schedule: Q01DX011 (ip), vehicle: carboxymethylcellulose (CMC)) was 48 % of control, the T/C (dose: 44.0 mg/kg/injection, schedule: Q01DX011 (ip), vehicle: carboxymethylcellulose (CMC)) was 67 % of control and the T/C (dose: 44.0 mg/kg/injection, schedule: Q01DX011 (ip), vehicle: other) was 76 % of control. For the same compound, the T/C (dose: 87.5 mg/kg/injection, schedule: Q01DX011 (ip), vehicle: carboxymethylcellulose (CMC)) was 9 % of control and 30 % of control, the T/C (dose: 88.0 mg/kg/injection, schedule: Q01DX011 (ip), vehicle: other) was 21 % of control and the T/C [6] was 104 % of control. For the same compound, the T/C (dose: 175.0 mg/kg/injection, schedule: Q01DX011 (ip), vehicle: carboxymethylcellulose (CMC)) was 12 % of control and 33 % of control, the T/C (dose: 175.0 mg/kg/injection, schedule: Q01DX011 (ip), vehicle: other) was 28 % of control and the T/C (dose: 200.0 mg/kg/injection, schedule: Q01DX011 (oral), vehicle: carboxymethylcellulose (CMC)) was 93 % of control. The T/C (dose: 400.0 mg/kg/injection, schedule: Q01DX011 (oral), vehicle: carboxymethylcellulose (CMC)) was 50 % of control and the T/C (dose: 800.0 mg/kg/injection, schedule: Q01DX011 (oral), vehicle: carboxymethylcellulose (CMC)) was 68 % of control.
`O=C(N[C@H](CO)[C@H](O)c1ccc([N+](=O)[O-])cc1)C(Cl)Cl` was tested, and the T/C (dose: 71.73 mg/kg/injection, schedule: Q01DX011 (ip), vehicle: carboxymethylcellulose (CMC)) was 88 % of control, the T/C (dose: 73.63 mg/kg/injection, schedule: Q01DX011 (ip), vehicle: carboxymethylcellulose (CMC)) was 103 % of control and 106 % of control and the T/C (dose: 95.85 mg/kg/injection, schedule: Q01DX011 (ip), vehicle: carboxymethylcellulose (CMC)) was 95 % of control. The T/C (dose: 143.47 mg/kg/injection, schedule: Q01DX011 (ip), vehicle: carboxymethylcellulose (CMC)) was 104 % of control, the T/C (dose: 147.25 mg/kg/injection, schedule: Q01DX011 (ip), vehicle: carboxymethylcellulose (CMC)) was 71 % of control and the T/C (dose: 187.5 mg/kg/injection, schedule: Q01DX011 (ip), vehicle: methylcellulose (MC)) was 70 % of control. The T/C (dose: 191.7 mg/kg/injection, schedule: Q01DX011 (ip), vehicle: carboxymethylcellulose (CMC)) was 156 % of control, the T/C (dose: 286.95 mg/kg/injection, schedule: Q01DX011 (ip), vehicle: carboxymethylcellulose (CMC)) was 115 % of control and the T/C (dose: 294.5 mg/kg/injection, schedule: Q01DX011 (ip), vehicle: carboxymethylcellulose (CMC)) was 65 % of control. For the same compound, the T/C (dose: 300.0 mg/kg/injection, schedule: Q01DX011 (ip), vehicle: carboxymethylcellulose (CMC)) was 104 % of control, the T/C (dose: 375.0 mg/kg/injection, schedule: Q01DX011 (ip), vehicle: methylcellulose (MC)) was 62 % of control and the T/C (dose: 500.0 mg/kg/injection, schedule: Q01DX011 (ip), vehicle: carboxymethylcellulose (CMC)) was 69 % of control. The T/C (dose: 750.0 mg/kg/injection, schedule: Q01DX011 (ip), vehicle: methylcellulose (MC)) was 99 % of control.
`c1nc(SCCSc2ncnc3nc[nH]c23)c2[nH]cnc2n1` was tested, and the T/C (dose: 4.6 mg/kg/injection, schedule: Q01DX011 (ip), vehicle: methylcellulose (MC)) was 93 % of control, the T/C [1] was 86 % of control and the T/C [2] was 74 % of control. For the same compound, the T/C [4] was 1 % of control and the T/C [9] was 2 % of control.
In the case of `COC(=O)c1[nH]c(=O)[nH]c(=O)c1F`, the T/C (dose: 3.0 mg/kg/injection, schedule: Q01DX011 (ip), vehicle: methylcellulose (MC)) was 72 % of control, the T/C (dose: 6.0 mg/kg/injection, schedule: Q01DX011 (ip), vehicle: methylcellulose (MC)) was 63 % of control and the T/C (dose: 12.0 mg/kg/injection, schedule: Q01DX011 (ip), vehicle: methylcellulose (MC)) was 91 % of control.
With `CC(CNC(=O)CCBr)CNC(=O)CCBr` the T/C (dose: 113.0 mg/kg/injection, schedule: Q01DX011 (ip), vehicle: carboxymethylcellulose (CMC)) was 51 % of control.
For `N#[N+]c1n[nH]nc1C(N)=O`, the T/C (dose: 6.25 mg/kg/injection, schedule: Q01DX011 (ip), vehicle: carboxymethylcellulose (CMC)) was 94 % of control and the T/C [8] was 63 % of control.

From PubChem BioAssay AID180 (DTP/NCI, 2004)
